The text below walks through data of ChEMBL document CHEMBL1136361, “5-amino-1-(2,6-dichloro-4-trifluoromethyl-phenyl)-3-[3H3]-methylsulfanyl-1H-pyrazole-4-carbonitrile (CTOM): synthesis and characterization of a novel and selective insect GABA receptor radioligand” (Bioorg Med Chem Lett, 2003).

Series [1] is described as follows: In vitro binding affinity against GABA receptor in mouse brain. Type of series: tissue-based.
Series [2] in a line: In vitro binding affinity against GABA receptor in house fly. Further details: species or system Musca domestica.
Series [3] is described as follows: Mortality percent was determined in flea; range is 50-100%. In kind it is ADME. Particulars: pulicinae.

Regarding `CSc1nn(-c2c(Cl)cc(C(F)(F)F)cc2Cl)c(N)c1C#N`, the Ki in series [1] was 4 nM; in series [2] it was 8 nM.

Take `N#Cc1nn(-c2c(Cl)cc(C(F)(F)F)cc2Cl)c(N)c1[S+]([O-])C(F)(F)F` (stereo not drawn) [FIPRONIL]: the Mortality in series [3] came to 50%.
